Biological target: NAD(P)H dehydrogenase [quinone] 1 (Mus musculus) (UniProt Q64669)
Assay: Induction of NQO1 activity in mouse Hepa1c1c7 cells assessed as concentration required to double specific enzyme activity after 48 hrs
Type: cell-based

Chain of NAD(P)H dehydrogenase [quinone] 1 (Mus musculus) (Q64669 whole entry): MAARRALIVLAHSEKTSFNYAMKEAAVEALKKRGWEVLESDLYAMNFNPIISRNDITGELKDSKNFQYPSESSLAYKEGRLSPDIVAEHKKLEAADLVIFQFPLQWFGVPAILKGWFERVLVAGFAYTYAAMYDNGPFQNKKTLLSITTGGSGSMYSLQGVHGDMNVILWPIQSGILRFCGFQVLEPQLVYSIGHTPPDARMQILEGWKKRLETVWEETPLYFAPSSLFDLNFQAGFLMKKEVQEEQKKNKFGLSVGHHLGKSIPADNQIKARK

| SMILES | CD |
| --- | --- |
| C#C[C@]12C=C(C#N)C(=O)C=C1[C@@]1(C)C=C(C#N)C(=O)C(C)(C)[C@@H]1CC2 (racemic) | 1 nM |
| C#C[C@]12C=C(C#N)C(=O)C=C1[C@@]1(C)C=C(C#N)C(=O)[C@@](C)(CO)[C@@H]1CC2 (racemic) | 2.2 nM |

Reference: ChEMBL document CHEMBL2429738, “Synthesis and biological evaluation of biotin conjugates of (±)-(4bS,8aR,10aS)-10a-ethynyl-4b,8,8-trimethyl-3,7-dioxo-3,4b,7,8,8a,9,10,10a-octahydro-phenanthrene-2,6-dicarbonitrile, an activator of the Keap1/Nrf2/ARE pathway, for the isolation of its protein targets” (Bioorg Med Chem Lett, 2013)
